Legend:
[1] = biological target: Misshapen-like kinase 1 (Homo sapiens) (UniProt Q8N4C8); assay: Inhibition of MINK1 (unknown origin) at 10 uM incubated for 30 mins in presence of [gamma-33P]ATP by multidrop micro reagent based assay relative to control; values are per cent of control
[2] = biological target: T1, Serine/threonine-protein kinase Nek2 (Homo sapiens) (UniProt P51955); assay: Inhibition of NEK2a (unknown origin) at 10 uM incubated for 30 mins in presence of [gamma-33P]ATP by multidrop micro reagent based assay relative to control; values are per cent of control
T1 sequence (whole entry): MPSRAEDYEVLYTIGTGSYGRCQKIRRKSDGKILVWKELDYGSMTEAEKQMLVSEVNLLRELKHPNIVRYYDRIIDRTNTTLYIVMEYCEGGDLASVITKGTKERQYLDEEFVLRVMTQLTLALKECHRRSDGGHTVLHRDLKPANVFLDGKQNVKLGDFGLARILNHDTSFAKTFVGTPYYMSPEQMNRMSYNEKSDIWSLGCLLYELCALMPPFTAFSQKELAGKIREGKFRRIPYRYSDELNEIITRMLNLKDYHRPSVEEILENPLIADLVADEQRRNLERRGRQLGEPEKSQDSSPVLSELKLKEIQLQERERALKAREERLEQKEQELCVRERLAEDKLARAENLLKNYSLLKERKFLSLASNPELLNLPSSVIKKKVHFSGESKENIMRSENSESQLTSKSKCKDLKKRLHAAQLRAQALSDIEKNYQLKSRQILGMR

[3] = biological target: Mitogen-activated protein kinase kinase kinase 11 (Homo sapiens) (UniProt Q16584); assay: Inhibition of MLK3 (unknown origin) at 10 uM incubated for 30 mins in presence of [gamma-33P]ATP by multidrop micro reagent based assay relative to control
[4] = biological target: Mitogen-activated protein kinase 3 (Homo sapiens) (UniProt P27361); assay: Inhibition of ERK1 (unknown origin) at 10 uM incubated for 30 mins in presence of [gamma-33P]ATP by multidrop micro reagent based assay relative to control; values are per cent of control
Chain of Mitogen-activated protein kinase 3 (Homo sapiens) (P27361 whole entry): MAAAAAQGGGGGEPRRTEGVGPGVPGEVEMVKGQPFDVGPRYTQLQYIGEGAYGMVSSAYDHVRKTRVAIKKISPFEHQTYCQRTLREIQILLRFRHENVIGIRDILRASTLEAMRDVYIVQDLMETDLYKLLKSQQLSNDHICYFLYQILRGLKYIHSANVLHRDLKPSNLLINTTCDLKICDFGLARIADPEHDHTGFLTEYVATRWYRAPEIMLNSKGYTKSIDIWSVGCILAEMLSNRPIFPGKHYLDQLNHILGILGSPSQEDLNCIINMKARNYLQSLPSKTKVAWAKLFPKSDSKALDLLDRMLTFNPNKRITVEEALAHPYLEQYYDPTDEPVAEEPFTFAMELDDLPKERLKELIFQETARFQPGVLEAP

[5] = biological target: Tyrosine-protein kinase SYK (Homo sapiens) (UniProt P43405); assay: Inhibition of SYK (unknown origin) at 10 uM incubated for 30 mins in presence of [gamma-33P]ATP by multidrop micro reagent based assay relative to control; values are per cent of control
[6] = biological target: Mitogen-activated protein kinase 13 (Homo sapiens) (UniProt O15264); assay: Residual activity of p38delta MAPK (unknown origin) at 10 uM incubated for 30 mins in presence of [gamma-33P]ATP by multidrop micro reagent based assay relative to control
Chain of Mitogen-activated protein kinase 13 (Homo sapiens) (O15264 whole entry): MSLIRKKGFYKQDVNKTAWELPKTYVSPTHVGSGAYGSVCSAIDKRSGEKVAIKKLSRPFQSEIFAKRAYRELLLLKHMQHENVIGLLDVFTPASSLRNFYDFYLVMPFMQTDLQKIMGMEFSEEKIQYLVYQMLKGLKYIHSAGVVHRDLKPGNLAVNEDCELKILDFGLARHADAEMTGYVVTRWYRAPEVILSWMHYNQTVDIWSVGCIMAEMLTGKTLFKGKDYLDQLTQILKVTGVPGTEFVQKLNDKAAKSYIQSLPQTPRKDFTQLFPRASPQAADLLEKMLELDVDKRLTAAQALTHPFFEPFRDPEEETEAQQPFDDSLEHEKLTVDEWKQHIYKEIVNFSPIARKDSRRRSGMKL

[7] = biological target: Dual specificity tyrosine-phosphorylation-regulated kinase 1A (Homo sapiens) (UniProt Q13627); assay: Inhibition of DYRK1A (unknown origin) at 10 uM incubated for 30 mins in presence of [gamma-33P]ATP by multidrop micro reagent based assay relative to control; values are per cent of control
[8] = biological target: Insulin-like growth factor 1 receptor (Homo sapiens) (UniProt P08069); assay: Inhibition of IGF-1R (unknown origin) at 10 uM incubated for 30 mins in presence of [gamma-33P]ATP by multidrop micro reagent based assay relative to control
Chain of Insulin-like growth factor 1 receptor (Homo sapiens) (P08069 31-736 limits assumed): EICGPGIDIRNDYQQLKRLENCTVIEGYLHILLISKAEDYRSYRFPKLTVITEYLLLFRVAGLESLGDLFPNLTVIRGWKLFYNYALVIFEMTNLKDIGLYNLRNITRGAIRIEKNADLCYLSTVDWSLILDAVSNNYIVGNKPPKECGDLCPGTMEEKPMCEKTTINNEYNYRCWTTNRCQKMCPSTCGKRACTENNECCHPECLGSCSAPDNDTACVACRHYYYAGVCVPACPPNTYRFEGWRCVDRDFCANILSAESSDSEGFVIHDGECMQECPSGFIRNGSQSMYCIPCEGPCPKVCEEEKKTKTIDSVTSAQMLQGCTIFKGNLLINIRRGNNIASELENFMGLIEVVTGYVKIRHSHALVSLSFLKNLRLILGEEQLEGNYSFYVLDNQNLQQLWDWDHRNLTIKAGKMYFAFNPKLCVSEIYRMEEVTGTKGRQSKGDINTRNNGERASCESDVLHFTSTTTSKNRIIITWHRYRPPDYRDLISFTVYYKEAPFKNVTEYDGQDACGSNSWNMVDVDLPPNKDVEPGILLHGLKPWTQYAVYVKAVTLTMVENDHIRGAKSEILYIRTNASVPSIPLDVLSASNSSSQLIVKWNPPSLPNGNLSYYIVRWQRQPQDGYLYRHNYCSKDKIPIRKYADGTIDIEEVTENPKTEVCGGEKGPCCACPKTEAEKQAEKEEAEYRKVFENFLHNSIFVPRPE
Chain of Insulin-like growth factor 1 receptor (Homo sapiens) (P08069 741-1367 limits assumed): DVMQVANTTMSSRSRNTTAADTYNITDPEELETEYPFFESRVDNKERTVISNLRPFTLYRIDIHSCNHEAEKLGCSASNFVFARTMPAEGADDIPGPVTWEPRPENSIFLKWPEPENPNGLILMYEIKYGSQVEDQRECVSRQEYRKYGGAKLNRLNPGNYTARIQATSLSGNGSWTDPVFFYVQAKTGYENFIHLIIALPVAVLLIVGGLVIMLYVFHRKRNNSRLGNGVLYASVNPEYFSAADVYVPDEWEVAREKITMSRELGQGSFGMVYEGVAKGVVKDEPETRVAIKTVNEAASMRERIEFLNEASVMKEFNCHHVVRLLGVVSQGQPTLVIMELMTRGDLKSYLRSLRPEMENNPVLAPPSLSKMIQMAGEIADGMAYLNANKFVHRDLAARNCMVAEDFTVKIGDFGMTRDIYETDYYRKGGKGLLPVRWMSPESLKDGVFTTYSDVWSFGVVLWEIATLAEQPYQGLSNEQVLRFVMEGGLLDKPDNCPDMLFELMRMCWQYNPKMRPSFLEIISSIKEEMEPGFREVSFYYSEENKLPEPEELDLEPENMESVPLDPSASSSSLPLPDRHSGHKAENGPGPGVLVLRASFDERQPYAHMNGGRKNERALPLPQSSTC

[9] = biological target: Maternal embryonic leucine zipper kinase (Homo sapiens) (UniProt Q14680); assay: Inhibition of MELK (unknown origin) at 10 uM incubated for 30 mins in presence of [gamma-33P]ATP by multidrop micro reagent based assay relative to control; values are per cent of control
Chain of Maternal embryonic leucine zipper kinase (Homo sapiens) (Q14680 whole entry, looked up): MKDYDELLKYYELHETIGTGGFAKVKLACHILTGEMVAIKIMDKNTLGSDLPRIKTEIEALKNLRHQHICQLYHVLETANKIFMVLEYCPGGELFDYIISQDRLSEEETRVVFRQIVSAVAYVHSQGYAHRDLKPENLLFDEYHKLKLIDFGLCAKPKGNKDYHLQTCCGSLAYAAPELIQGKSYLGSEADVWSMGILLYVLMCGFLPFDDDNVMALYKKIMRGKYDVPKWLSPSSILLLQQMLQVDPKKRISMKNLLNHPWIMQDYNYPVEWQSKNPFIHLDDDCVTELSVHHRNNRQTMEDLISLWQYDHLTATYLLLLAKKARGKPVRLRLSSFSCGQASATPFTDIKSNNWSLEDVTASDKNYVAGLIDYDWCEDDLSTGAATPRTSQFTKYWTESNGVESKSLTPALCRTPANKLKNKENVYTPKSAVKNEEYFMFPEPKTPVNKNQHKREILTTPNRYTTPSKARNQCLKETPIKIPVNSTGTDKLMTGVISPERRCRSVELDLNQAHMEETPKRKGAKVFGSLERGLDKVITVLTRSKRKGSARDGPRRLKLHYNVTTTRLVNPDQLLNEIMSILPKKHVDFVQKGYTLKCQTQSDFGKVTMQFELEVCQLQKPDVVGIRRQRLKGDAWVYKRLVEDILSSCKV

[10] = biological target: Tyrosine-protein kinase CSK (Homo sapiens) (UniProt P41240); assay: Residual activity of CSK (unknown origin) at 10 uM incubated for 30 mins in presence of [gamma-33P]ATP by multidrop micro reagent based assay relative to control
[11] = biological target: Casein kinase 2 (Homo sapiens) (UniProt P67870+P68400+P19784+Q8NEV1); assay: Inhibition of CK2 (unknown origin) at 10 uM incubated for 30 mins in presence of [gamma-33P]ATP by multidrop micro reagent based assay relative to control; values are per cent of control
[12] = biological target: Calcium/calmodulin-dependent protein kinase kinase 2 (Homo sapiens) (UniProt Q96RR4); assay: Residual activity of CaMKKbeta (unknown origin) at 10 uM incubated for 30 mins in presence of [gamma-33P]ATP by multidrop micro reagent based assay relative to control
Chain of Calcium/calmodulin-dependent protein kinase kinase 2 (Homo sapiens) (Q96RR4 2-588 limits assumed): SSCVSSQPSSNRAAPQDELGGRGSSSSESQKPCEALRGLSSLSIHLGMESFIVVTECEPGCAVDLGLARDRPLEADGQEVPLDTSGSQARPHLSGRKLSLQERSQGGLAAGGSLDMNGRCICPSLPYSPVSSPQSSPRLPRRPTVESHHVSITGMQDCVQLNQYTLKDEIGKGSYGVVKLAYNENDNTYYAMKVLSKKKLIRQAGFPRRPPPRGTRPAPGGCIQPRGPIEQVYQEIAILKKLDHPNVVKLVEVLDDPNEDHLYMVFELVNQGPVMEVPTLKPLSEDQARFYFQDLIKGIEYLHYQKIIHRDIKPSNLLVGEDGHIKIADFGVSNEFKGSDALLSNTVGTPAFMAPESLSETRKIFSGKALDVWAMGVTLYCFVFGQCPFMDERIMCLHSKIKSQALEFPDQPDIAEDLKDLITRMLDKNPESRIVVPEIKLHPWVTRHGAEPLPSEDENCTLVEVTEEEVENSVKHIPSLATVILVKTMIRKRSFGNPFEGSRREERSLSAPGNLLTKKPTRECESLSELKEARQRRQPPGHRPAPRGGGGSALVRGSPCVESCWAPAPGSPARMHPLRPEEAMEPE

[13] = biological target: Serine/threonine-protein kinase 26 (Homo sapiens) (UniProt Q9P289); assay: Inhibition of MST4 (unknown origin) at 1 uM incubated for 30 mins in presence of [gamma-33P]ATP by multidrop micro reagent based assay relative to control
Chain of Serine/threonine-protein kinase 26 (Homo sapiens) (Q9P289 2-416 limits assumed): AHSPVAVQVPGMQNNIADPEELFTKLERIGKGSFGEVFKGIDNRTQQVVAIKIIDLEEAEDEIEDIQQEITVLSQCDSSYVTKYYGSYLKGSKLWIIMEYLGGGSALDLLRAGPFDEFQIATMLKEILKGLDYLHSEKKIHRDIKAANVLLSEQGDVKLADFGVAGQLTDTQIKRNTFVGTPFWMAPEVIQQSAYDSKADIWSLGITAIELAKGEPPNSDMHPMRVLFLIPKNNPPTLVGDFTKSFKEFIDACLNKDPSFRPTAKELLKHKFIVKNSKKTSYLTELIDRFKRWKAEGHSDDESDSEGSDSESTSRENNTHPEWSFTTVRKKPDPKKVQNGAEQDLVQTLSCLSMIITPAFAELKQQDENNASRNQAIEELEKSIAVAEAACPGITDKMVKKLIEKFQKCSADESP

[14] = biological target: Serine/threonine-protein kinase Chk1 (Homo sapiens) (UniProt O14757); assay: Inhibition of CHK1 (unknown origin) at 1 uM incubated for 30 mins in presence of [gamma-33P]ATP by multidrop micro reagent based assay relative to control; values are per cent of control
Chain of Serine/threonine-protein kinase Chk1 (Homo sapiens) (O14757 whole entry): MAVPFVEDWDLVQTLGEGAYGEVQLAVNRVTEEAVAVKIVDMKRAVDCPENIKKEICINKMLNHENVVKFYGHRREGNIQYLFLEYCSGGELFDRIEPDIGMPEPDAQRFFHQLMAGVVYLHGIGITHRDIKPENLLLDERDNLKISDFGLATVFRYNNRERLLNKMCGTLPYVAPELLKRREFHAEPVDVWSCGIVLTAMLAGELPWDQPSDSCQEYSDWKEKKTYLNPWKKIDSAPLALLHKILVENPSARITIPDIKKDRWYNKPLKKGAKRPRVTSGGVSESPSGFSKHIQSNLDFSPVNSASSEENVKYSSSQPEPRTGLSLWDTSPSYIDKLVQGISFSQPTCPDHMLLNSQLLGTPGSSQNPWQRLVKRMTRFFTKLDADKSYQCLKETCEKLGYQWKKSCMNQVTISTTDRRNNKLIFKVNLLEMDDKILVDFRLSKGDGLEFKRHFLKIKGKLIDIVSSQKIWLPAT

[15] = biological target: Dual specificity tyrosine-phosphorylation-regulated kinase 1A (Homo sapiens) (UniProt Q13627); assay: Inhibition of DYRK1A (unknown origin) at 1 uM incubated for 30 mins in presence of [gamma-33P]ATP by multidrop micro reagent based assay relative to control; values are per cent of control
[16] = biological target: MAP kinase-activated protein kinase 2 (Homo sapiens) (UniProt P49137); assay: Inhibition of MAPKAPK2 (unknown origin) at 1 uM incubated for 30 mins in presence of [gamma-33P]ATP by multidrop micro reagent based assay relative to control; values are per cent of control
Chain of MAP kinase-activated protein kinase 2 (Homo sapiens) (P49137 whole entry, looked up): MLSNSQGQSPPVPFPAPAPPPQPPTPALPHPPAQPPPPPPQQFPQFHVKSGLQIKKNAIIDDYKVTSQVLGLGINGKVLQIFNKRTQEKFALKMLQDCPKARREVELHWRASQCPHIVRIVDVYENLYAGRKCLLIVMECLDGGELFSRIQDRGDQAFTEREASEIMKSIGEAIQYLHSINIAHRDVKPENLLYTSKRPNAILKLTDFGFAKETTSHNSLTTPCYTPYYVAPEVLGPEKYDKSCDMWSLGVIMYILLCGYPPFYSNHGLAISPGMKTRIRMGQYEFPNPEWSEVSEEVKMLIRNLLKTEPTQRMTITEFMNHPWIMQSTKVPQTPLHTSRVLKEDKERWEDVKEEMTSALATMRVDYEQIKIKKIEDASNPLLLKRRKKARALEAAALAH

SMILES: O=S(=O)(c1cccc2cnccc12)N1CCCNCC1 [FASUDIL]
- residual activity [1]: 54%

SMILES: C[C@@H](N)[C@H]1CC[C@H](C(=O)Nc2ccncc2)CC1
- residual activity [2]: 104%
- inhibition [3]: 110%
- residual activity [4]: 92%
- residual activity [5]: 94%
- residual activity [6]: 86%
- residual activity [7]: 96%
- inhibition [8]: 99%
- residual activity [9]: 79%
- residual activity [10]: 104%
- residual activity [11]: 85%
- residual activity [12]: 102%

SMILES: CC1=C(C(=O)Nc2cc3cn[nH]c3cc2F)C(c2ccc(C(F)(F)F)cc2)CC(=O)N1 (stereo unspecified)
- residual activity [13]: 70%
- residual activity [14]: 111%
- residual activity [15]: 98%
- residual activity [16]: 91%

— ChEMBL document CHEMBL5705888, “Substrate specificity and inhibitors of LRRK2, a protein kinase mutated in Parkinson's disease” (Biochem J, 2009)
